# Data published in patent US20230023559A1, “ARYLMETHYLENE HETEROCYCLIC COMPOUNDS AS KV1.3 POTASSIUM SHAKER CHANNEL BLOCKERS” (D. E. Shaw Research, LLC, priority 2019, published 2023).
# Key:
# [1] = target: T1, Kv1.3 potassium channel (Homo sapiens, UniProt P22001); assay: Kv1.3 potassium channel blocker activity, automated whole-cell patch clamp (Patchliner); assay type: cell-based; settings: CHO-K1 cells stably expressing Kv1.3; whole cell current inhibition; read-out: Kv1.3_IC50
# T1 construct: expressed in transfected cells
# T1 sequence (P22001 whole entry): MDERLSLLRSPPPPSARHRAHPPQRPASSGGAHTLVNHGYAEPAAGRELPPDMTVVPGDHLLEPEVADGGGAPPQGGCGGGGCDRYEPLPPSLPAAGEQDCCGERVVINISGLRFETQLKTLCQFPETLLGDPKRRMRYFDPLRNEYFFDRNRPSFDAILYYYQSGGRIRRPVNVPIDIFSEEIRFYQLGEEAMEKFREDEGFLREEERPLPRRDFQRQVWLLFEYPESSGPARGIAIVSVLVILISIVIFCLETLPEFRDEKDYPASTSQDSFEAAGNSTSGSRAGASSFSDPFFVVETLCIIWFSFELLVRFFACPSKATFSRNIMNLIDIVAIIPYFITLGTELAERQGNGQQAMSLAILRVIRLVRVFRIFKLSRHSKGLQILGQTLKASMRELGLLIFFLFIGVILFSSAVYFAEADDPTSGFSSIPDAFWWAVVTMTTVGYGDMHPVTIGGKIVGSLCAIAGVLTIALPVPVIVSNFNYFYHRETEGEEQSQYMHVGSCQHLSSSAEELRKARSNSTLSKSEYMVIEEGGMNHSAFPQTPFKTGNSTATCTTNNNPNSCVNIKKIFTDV
# How it was run: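 Peak-current block was recorded on stable Kv1.3 CHO-K1 cells by automated patch clamp, stepping from a −90 mV holding potential to +40 mV for 100 ms at 0.1 Hz with 10 s breaks between trains. Online P/4 leak subtraction, 10 kHz sampling; compound exposure under 10 s per train.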
# [2] = target: hERG channel (Homo sapiens, UniProt Q12809); assay: hERG electrophysiology, automated whole-cell patch clamp (Patchliner)
# Sequence of hERG channel (Q12809 whole entry): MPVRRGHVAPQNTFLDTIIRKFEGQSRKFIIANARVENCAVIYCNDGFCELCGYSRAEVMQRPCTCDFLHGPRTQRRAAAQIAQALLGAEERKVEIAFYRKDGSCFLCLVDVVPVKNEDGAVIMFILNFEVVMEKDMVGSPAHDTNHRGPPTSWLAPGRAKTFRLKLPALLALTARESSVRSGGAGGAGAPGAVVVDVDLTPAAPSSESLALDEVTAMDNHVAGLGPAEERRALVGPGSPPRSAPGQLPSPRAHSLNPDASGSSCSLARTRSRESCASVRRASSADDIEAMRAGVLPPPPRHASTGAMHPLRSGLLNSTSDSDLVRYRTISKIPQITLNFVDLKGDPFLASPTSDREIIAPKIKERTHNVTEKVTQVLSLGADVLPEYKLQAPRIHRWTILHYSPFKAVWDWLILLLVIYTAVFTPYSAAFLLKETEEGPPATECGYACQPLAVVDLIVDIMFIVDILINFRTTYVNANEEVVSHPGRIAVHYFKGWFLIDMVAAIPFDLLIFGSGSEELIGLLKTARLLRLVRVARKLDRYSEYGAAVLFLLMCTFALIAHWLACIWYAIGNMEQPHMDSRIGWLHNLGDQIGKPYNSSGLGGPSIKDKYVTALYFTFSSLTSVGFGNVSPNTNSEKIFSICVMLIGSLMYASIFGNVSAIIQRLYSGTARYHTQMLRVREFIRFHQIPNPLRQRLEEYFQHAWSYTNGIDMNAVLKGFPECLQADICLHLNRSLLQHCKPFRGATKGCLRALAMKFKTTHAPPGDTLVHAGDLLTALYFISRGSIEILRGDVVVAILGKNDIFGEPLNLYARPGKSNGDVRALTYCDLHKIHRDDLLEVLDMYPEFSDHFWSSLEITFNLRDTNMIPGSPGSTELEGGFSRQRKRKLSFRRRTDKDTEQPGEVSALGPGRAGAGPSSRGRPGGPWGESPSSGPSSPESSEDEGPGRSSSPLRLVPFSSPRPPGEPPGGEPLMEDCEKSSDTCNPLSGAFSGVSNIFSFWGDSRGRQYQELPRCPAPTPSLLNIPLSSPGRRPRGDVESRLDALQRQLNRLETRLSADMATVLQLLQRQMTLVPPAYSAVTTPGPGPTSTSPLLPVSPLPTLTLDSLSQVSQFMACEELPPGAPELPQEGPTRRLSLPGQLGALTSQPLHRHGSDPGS
# Experimental: CHO-K1 cells stably expressing hERG were grown in Ham's F-12 Medium with Glutamine containing 10% heat-inactivated FBS, 1% Penicillin/Streptomycin, Hygromycin (100 μg/ml) and G418 (100 μg/ml). Cells were grown in culture flasks at 37° C. in a 5% CO2-humidified incubator.
# The cells were bathed in an extracellular solution containing 140 mM NaCl, 4 mM KCl, 2 mM CaCl2), 1 mM MgCl2, 5 mM Glucose, 10 mM HEPES; pH adjusted to 7.4 with NaOH; 295-305 mOsm. The internal solution contained 50 mM KCl, 10 mM NaCl, 60 mM KF, 20 mM EGTA, 10 mM HEPES; pH adjusted to 7.2 with KOH; 285 mOsm. All compounds were dissolved in DMSO at 30 mM. Compound stock solutions were freshly diluted with external solution to concentrations of 30 nM, 100 nM, 300 nM, 1 μM, 3 μM, 10 μM, 30 μM and 100 μM. The highest content of DMSO (0.3%) was present in 100 μM.
# The voltage protocol (see Table B) was designed to simulate voltage changes during a cardiac action potential with a 300 ms depolarization to +20 mV (analogous to the plateau phase of the cardiac action potential), a repolarization for 300 ms to −50 mV (inducing a tail current) and a final step to the holding potential of −80 mV. The pulse frequency was 0.3 Hz. Control (compound-free) and compound pulse trains for each compound concentration applied contained 70 pulses.
# Whole cell current recordings and compound application were enabled by means of an automated patch clamp platform Patchliner (Nanion). EPC 10 patch clamp amplifier (HEKA) along with Patchmaster software (HEKA Elektronik Dr. Schulze GmbH) was used for data acquisition. Data were sampled at 10 kHz without filtering. Increasing compound concentrations were applied consecutively to the same cell without washouts in between.
# AUC and PEAK values were obtained with Patchmaster (HEKA Elektronik Dr. Schulze GmbH). To determine IC50 the last single pulse in the pulse train corresponding to a given compound concentration was used. Obtained AUC and PEAK values in the presence of compound were normalized to control values in the absence of compound. Using Origin (OridinLab), IC50 was derived from data fit to Hill equation: Icompound/Icontrol=(100−A)/(1+([compound]/IC50)nH)+A, where IC50 is the concentration at which current inhibition is half-maximal, [compound] is the applied compound concentration, A is the fraction of current that is not blocked and nH is the Hill coefficient.
SMILES,IC50 [1] [µM],IC50 [2] [µM]
"N[C@@H](c1cc(Cl)c(Cl)cc1O)C1CCN(C(=O)c2cnc(=O)[nH]c2)CC1 [Compound 277, 5-[4-[(R)-amino(4,5-dichloro-2-hydroxyphenyl)methyl]piperidine-1-carbonyl]-1H-pyrimidin-2-one trifluoroacetic acid]",< 0.5,> 30
"N[C@@H](c1cc(Cl)c(Cl)cc1O)C1CCN(C(=O)C2CNC(=O)OC2)CC1 (stereo partly drawn) [Compound 279, 5-[4-[(R)-amino(4,5-dichloro-2-hydroxyphenyl)methyl]piperidine-1-carbonyl]-1,3-oxazinan-2-one trifluoroacetic acid]",< 0.5,> 30
"Cc1cc(O)c([C@H](N)C2CCN(C(=O)c3c[nH]c(=O)c(C#N)c3)CC2)cc1Cl [Compound 280, (R)-5-(4-(amino (5-chloro-2-hydroxy-4-methylphenyl)methyl)piperidine-1-carbonyl)-2-oxo-1,2-dihydro-pyridine-3-carbonitrile]",< 0.5,> 30
"Cc1cc(O)c([C@H](N)C2CCN(C(=O)[C@H](O)CO)CC2)cc1F [Compound 283, (2R)-1-[4-[(R)-amino(5-fluoro-2-hydroxy-4-methylphenyl)methyl]piperidin-1-yl]-2,3-dihydroxypropan-1-one]",< 10,> 30
"N[C@@H](c1cc(Cl)c(C(F)(F)F)cc1O)C1CCN(C(=O)[C@H](O)CO)CC1 [Compound 284, (2R)-1-[4-[(R)-amino[5-chloro-2-hydroxy-4-(trifluoromethyl)phenyl]methyl]piperidin-1-yl]-2,3-dihydroxypropan-1-one]",< 10,> 30
"N[C@@H](c1cc(Cl)c(C2CC2)cc1O)C1CCN(C(=O)[C@H](O)CO)CC1 [Compound 289, (2R)-1-[4-[(R)-amino(5-chloro-4-cyclopropyl-2-hydroxyphenyl)methyl]piperidin-1-yl]-2,3-dihydroxypropan-1-one]",< 0.5,> 30
"N[C@@H](c1c(O)cc(Cl)c(Cl)c1F)C1CCN(C(=O)[C@H](O)CO)CC1 [Compound 291, (R)-1-(4-((R)-amino(3,4-dichloro-2-fluoro-6-hydroxyphenyl)methyl)piperidin-1-yl)-2,3-dihydroxypropan-1-one]",< 0.5,> 30
"CCc1cc(O)c([C@H](N)C2CCN(C(=O)[C@H](O)CO)CC2)cc1Cl [Compound 292, (2R)-1-[4-[(R)-amino(5-chloro-4-ethyl-2-hydroxyphenyl)methyl]piperidin-1-yl]-2,3-dihydroxypropan-1-one Trifluoroacetic Acid]",< 0.5,> 30
"Cc1cc(O)c([C@H](N)C2CCN(C(=O)[C@H](O)CO)CC2)cc1C [Compound 293, (2R)-1-[4-[(R)-amino(2-hydroxy-4,5-dimethylphenyl)methyl]piperidin-1-yl]-2,3-dihydroxypropan-1-one Trifluoroacetic Acid]",< 0.5,> 30
"Cn1ccc(N2CCC([C@@H](N)c3cc(Cl)c(Cl)cc3O)CC2)cc1=O [Compound 297, 4-[4-[(R)-amino(4,5-dichloro-2-hydroxyphenyl)methyl]piperidin-1-yl]-1-methylpyridin-2-one]",< 0.5,< 30
"Cn1cc(C(=O)N2CCC([C@@H](N)c3cc(Cl)c(Cl)cc3O)CC2)ncc1=O [Compound 298, 5-[4-[(R)-amino(4,5-dichloro-2-hydroxyphenyl)methyl]piperidine-1-carbonyl]-1-methylpyrazin-2-one Trifluoroacetic Acid]",< 0.5,< 30
"N[C@@H](c1cc(Cl)c(Cl)cc1O)C1CCN(C(=O)C2CCC(=O)NC2)CC1 (stereo partly drawn) [Compound 299, 5-[4-[(R)-amino(4,5-dichloro-2-hydroxyphenyl)methyl]piperidine-1-carbonyl]piperidin-2-one Trifluoroacetic Acid]",< 0.5,> 30
"CN1CC(C(=O)N2CCC([C@@H](N)c3cc(Cl)c(Cl)cc3O)CC2)NCC1=O (stereo partly drawn) [Compound 300, 5-[4-[(R)-amino(4,5-dichloro-2-hydroxyphenyl)methyl]piperidine-1-carbonyl]-1-methylpiperazin-2-one Trifluoroacetic Acid]",< 0.5,> 30
"Nc1cc(C(=O)N2CCC([C@@H](N)c3cc(Cl)c(Cl)cc3O)CC2)ccn1 [Compound 301, 2-[(R)-amino[1-(2-aminopyridine-4-carbonyl)piperidin-4-yl]methyl]-4,5-dichlorophenol trifluoroacetic acid]",< 0.5,> 30
"N[C@@H](c1cc(Cl)c(Cl)cc1O)C1CCN(c2ccc(O)nc2)CC1 [Compound 302, (R)-5-(4-(amino(4,5-dichloro-2-hydroxyphenyl)methyl)piperidin-1-yl)pyridin-2-ol]",< 10,> 30

# The next lines start with results.
IC50 [1] [µM],SMILES,IC50 [2] [µM]
< 0.5,"N[C@@H](c1cc(Cl)c(Cl)cc1O)C1CCN(C(=O)C(CO)CO)CC1 [Compound 303, 1-[4-[(R)-amino(4,5-dichloro-2-hydroxyphenyl)methyl]piperidin-1-yl]-3-hydroxy-2-(hydroxymethyl) propan-1-one trifluoroacetic acid]",> 30
< 0.5,"C[C@H](CO)C(=O)N1CCC([C@@H](N)c2cc(Cl)c(Cl)cc2O)CC1 [Compound 304, (2R)-1-[4-[(R)-amino(4,5-dichloro-2-hydroxyphenyl)methyl]piperidin-1-yl]-3-hydroxy-2-methylpropan-1-one]",> 30
< 0.5,"N[C@@H](c1cc(Cl)c(Cl)cc1O)C1CCN(C(=O)c2ccc(=O)[nH]c2)CC1 [Compound 305, 5-[4-[(R)-amino(4,5-dichloro-2-hydroxyphenyl)methyl]piperidine-1-carbonyl]-1,2-dihydropyridin-2-one trifluoroacetic acid]",> 30
< 0.5,"CN1C(=O)CC[C@H]1C(=O)N1CCC([C@@H](N)c2cc(Cl)c(Cl)cc2O)CC1 [Compound 306, (S)-5-(4-((R)-amino(4,5-dichloro-2-hydroxyphenyl)methyl)piperidine-1-carbonyl)-1-methylpyrrolidin-2-one trifluoroacetic acid]",> 30
< 0.5,"N[C@@H](c1cc(Cl)c(Br)cc1O)C1CCN(C(=O)[C@H](O)CO)CC1 [Compound 317, (2R)-1-[4-[(R)-amino(4-bromo-5-chloro-2-hydroxyphenyl)methyl]piperidin-1-yl]-2,3-dihydroxypropan-1-one Trifluoroacetic Acid]",> 30
< 10,"N[C@@H](c1cc(Cl)c(Cl)cc1O)C1CCN(C(=O)C2CC3(CC(O)C3)C2)CC1 (stereo partly drawn) [Compound 320, 6-[4-[(R)-amino(4,5-dichloro-2-hydroxyphenyl)methyl]piperidine-1-carbonyl]spiro [3.3]heptan-2-ol trifluoroacetic acid]",< 30
< 0.5,"Cc1cc(O)c([C@H](N)C2CCN(C(=O)c3ccc4c(c3)CNC4=O)CC2)cc1Cl [Compound 324, 5-[4-[(R)-amino(5-chloro-2-hydroxy-4-methylphenyl)methyl]piperidine-1-carbonyl]-2,3-dihydroisoindol-1-one trifluoroacetic acid]",> 30
< 0.5,"C[C@H]1C[C@H]([C@@H](N)c2cc(Cl)c(Cl)cc2O)CCN1C(=O)[C@H](O)CO [Compound 326, (2R)-1-[(2S,4R)-4-[(R)-amino(4,5-dichloro-2-hydroxyphenyl)methyl]-2-methylpiperidin-1-yl]-2,3-dihydroxypropan-1-one Trifluoroacetic Acid]",> 30
< 10,"C[C@@H]1C[C@@H]([C@@H](N)c2cc(Cl)c(Cl)cc2O)CCN1C(=O)[C@H](O)CO [Compound 327, (2R)-1-[(2R,4S)-4-[(R)-amino(4,5-dichloro-2-hydroxyphenyl)methyl]-2-methylpiperidin-1-yl]-2,3-dihydroxypropan-1-one Trifluoroacetic Acid]",> 30
< 0.5,"NC(c1c(O)cc(Cl)c(Cl)c1F)C1CCN(C(=O)[C@H](O)CO)CC1 (stereo partly drawn) [Compound 328, (2R)-1-[4-[amino(3,4-dichloro-2-fluoro-6-hydroxyphenyl)methyl]piperidin-1-yl]-2,3-dihydroxypropan-1-one Trifluoroacetic Acid]",> 30
< 0.5,"Cc1cc(O)c([C@H](N)C2CCN(C(=O)[C@@H]3OCC[C@@H]3O)CC2)cc1Cl [Compound 335, (2R,3S)-2-[4-[(R)-amino(5-chloro-2-hydroxy-4-methylphenyl)methyl]piperidine-1-carbonyl]oxolan-3-ol trifluoroacetic acid]",> 30
